Assay results reported in US20070191393A1, “Macrocyclic anilinopyrimidines with substituted sulphoximine as selective inhibitors of cell cycle kinases” (priority 2006, published 2007).

How the values were obtained:
Type in all cases: biochemical
Aurora-A = target: T1, Aurora-A (Homo sapiens, UniProt O14965); assay: Aurora-A kinase assay; details: 8 μM ATP, 22° C., 90 min
T1 construct: purchased Upstate; host or cells: Sf21 insect cells
T1 sequence (O14965 1-403): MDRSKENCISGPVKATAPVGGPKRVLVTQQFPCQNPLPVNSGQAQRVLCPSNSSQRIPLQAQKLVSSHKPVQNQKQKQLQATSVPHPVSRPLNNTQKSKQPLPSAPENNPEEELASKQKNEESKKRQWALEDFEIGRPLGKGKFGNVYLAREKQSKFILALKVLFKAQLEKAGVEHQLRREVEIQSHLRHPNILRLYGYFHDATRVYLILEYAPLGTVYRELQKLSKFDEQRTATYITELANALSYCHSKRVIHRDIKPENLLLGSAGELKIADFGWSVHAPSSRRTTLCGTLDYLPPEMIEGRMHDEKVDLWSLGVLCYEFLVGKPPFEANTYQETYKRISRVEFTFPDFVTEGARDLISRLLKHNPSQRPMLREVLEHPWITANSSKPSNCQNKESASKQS
Experimental: Recombinant Aurora-A protein, expressed in Sf21 insect cells, was purchased from Upstate. The kinase substrate used was the biotinylated peptide having the amino acid sequence biotin-LNYNRRLSLGPMF, which was purchased from Jerini A G in Berlin.
Aurora-A [15 nM in the test mixture, test volume 5 μl] was incubated in the presence of various concentrations of test substances (0 μM and 10 measurement points within the range 0.001-20 μM in duplicate) in assay buffer [25 mM HEPES pH 7.4, 3 mM MnCl2, 5 mM MnCl2, 0.1 mM Na ortho-vanadate, 2.0 mM dithiothreitol, 0.05% bovine serum albumin (BSA), 0.01% Triton X-100, 8 μM ATP, 4 nCi/μl gama-P33-ATP, 5.0 μM substrate peptide biotin-LNYNRRLSLGPMF, 1.0% dimethyl sulphoxide] at 22° C. for 90 min. The reaction was stopped by adding 12.5 μl of an EDTA/detection solution [16 mM EDTA, 40 mM ATP, 0.08% Triton X-100, 4 mg/ml PVT streptavidin SPA beads (from Amersham)]. After incubation for 10 minutes, the SPA beads were pelleted by centrifugation at 1000×G for 10 minutes. Measurement took place in a PerkinElmer Topcount scintillation counter.
The measured data were normalized to 0% inhibition (enzyme reaction without inhibitor) and 100% inhibition (enzyme reaction in the presence of 0.1 μM staurosporine (from Sigma)). The IC50 values were determined by means of a 4-parameter fit using the company's own software.

CDK1/CycB = target: T2, CDK1/CycB (Homo sapiens, UniProt P06493); assay: CDK1/CycB kinase assay; details: 0.5 μM ATP, 22° C., 10 min
T2 construct: GST; purchased ProQinase GmbH, Freiburg; host or cells: baculovirus-infected Sf9 insect cells
T2 sequence (P06493 whole entry): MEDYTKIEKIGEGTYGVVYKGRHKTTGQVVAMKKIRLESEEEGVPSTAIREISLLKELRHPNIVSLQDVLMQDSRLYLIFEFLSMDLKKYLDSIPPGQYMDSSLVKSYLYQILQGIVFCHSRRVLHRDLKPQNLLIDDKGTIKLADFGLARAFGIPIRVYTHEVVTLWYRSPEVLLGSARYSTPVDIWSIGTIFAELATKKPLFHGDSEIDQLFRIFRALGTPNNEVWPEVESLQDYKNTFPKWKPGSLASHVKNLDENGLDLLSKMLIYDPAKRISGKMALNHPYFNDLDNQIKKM
T2 sequence (P14635 whole entry partner): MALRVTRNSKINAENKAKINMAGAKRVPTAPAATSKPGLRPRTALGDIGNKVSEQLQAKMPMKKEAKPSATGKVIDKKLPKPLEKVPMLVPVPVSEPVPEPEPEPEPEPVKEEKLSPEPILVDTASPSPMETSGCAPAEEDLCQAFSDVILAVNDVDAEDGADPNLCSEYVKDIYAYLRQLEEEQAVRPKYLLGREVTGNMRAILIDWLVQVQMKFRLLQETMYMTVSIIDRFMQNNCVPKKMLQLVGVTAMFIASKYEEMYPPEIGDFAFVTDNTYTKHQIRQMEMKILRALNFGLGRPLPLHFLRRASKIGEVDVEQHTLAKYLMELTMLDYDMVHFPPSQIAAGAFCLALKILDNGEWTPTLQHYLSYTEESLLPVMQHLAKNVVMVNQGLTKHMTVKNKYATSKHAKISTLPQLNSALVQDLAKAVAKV
Experimental: Recombinant CDK1- and CycB-GST fusion proteins, purified from baculovirus-infected insect cells (Sf9), were purchased from ProQinase GmbH, Freiburg. The histone IIIS used as kinase substrate can be purchased from Sigma. CDK1/CycB (200 ng/measurement point) was incubated in the presence of various concentrations of test substances (0 μM, and within the range 0.01-100 μM) in assay buffer [50 mM Tris/HCl pH 8.0, 10 mM MgCl2, 0.1 mM Na ortho-vanadate, 1.0 mM dithiothreitol, 0.5 μM ATP, 10 μg/measurement point histone IIIS, 0.2 μCi/measurement point 33P-gamma ATP, 0.05% NP40, 1.25% dimethyl sulphoxide] at 22° C. for 10 min. The reaction was stopped by adding EDTA solution (250 mM, pH 8.0, 15 μl/measurement point).
15 μl of each reaction mixture were loaded onto P30 filter strips (from Wallac), and non-incorporated 33P-ATP was removed by washing the filter strips three times in 0.5% strength phosphoric acid for 10 min each time. After the filter strips had been dried at 70° C. for 1 hour, the filter strips were covered with scintillator strips (MeltiLex™ A, from Wallac) and baked at 90° C. for 1 hour. The amount of incorporated 33P (substrate phosphorylation) was determined by scintillation measurement in a gamma radiation counter (Wallac).

Chk1 = target: T3, Chk1 (Homo sapiens, UniProt O14757); assay: Chk1 kinase assay; details: 10 μM ATP, 22° C., 60 min
T3 construct: made in house; host or cells: Sf9 insect cells
T3 sequence (O14757 1-476): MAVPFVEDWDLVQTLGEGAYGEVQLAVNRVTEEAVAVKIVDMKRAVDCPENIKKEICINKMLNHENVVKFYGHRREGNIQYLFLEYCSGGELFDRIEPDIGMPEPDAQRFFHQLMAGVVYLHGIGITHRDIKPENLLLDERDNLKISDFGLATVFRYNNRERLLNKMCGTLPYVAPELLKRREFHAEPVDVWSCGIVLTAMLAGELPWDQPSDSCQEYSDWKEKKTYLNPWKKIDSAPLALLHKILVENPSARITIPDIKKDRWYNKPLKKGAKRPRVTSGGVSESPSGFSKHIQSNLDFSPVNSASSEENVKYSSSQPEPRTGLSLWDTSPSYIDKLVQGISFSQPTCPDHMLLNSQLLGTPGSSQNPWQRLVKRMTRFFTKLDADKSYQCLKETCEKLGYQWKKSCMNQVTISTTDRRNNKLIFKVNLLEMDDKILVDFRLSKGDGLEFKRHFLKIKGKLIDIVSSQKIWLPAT
Experimental: Recombinant Chk1 protein was expressed in Sf9 insect cells and then purified. The kinase substrate used was the biotinylated peptide having the amino acid sequence biotin-ALKLVRTPSFVITAK, which was purchased from Biosynthan GmbH in Berlin.
Chk1 [0.11 μg/ml in the test mixture, test volume 5 μl] was incubated in the presence of various concentrations of test substances (0 μM, and 10 measurement points within the range 0.001-20 μM in duplicate) in assay buffer [50 mM HEPES pH 7.5, 10 mM MgCl2, […], 0.1 mM Na ortho-vanadate, 1.0 mM dithiothreitol, 1 tablet/2.5 ml complete protease inhibitor (from Roche), 10 μM ATP, 1.0 μM substrate peptide biotin-ALKLVRTPSFVITAK, 1.0% dimethyl sulphoxide] at 22° C. for 60 min. The reaction was stopped by adding 5 μl of an EDTA/detection solution [100 mM EDTA, 800 mM potassium fluoride, 0.2% BSA, 0.2 μM streptavidin-XLent (from CisBio), 9.6 nM anti-phospho-Akt antibody (from Cell Signalling Technology), 4 nM protein-A-Eu(K) (from CisBio)]. The fluorescence emission at 620 nm and 665 nm after excitation with light of the wavelength 350 nm was measured in a Rubystar HTRF instrument from BMG Labsystems.
The measured data (ratio of emission 665 divided by emission 620 multiplied by 10 000) were normalized to 0% inhibition (enzyme reaction without inhibitor) and 100% inhibition (all assay components apart from enzyme). The IC50 values were determined by means of a 4-parameter fit using the company's own software.

SMILES | IC50 (Aurora-A) [nM] | IC50 (CDK1/CycB) [nM] | IC50 (Chk1) [nM]
CCOC(=O)N=S(C)(=O)c1ccc2cc1NCCCCNc1nc(ncc1Br)N2 (racemic) [Example 1, (RS)—S-[1^5-Bromo-2,4,9-triaza-1(2,4)-pyrimidina-3(1,3)-benzenacyclononaphan-3^4-yl]-N-(ethoxycarbonyl)-S-methylsulphoximide] | 27 | 173 | 4640
CCOC(=O)N=S(C)(=O)c1ccc2cc1NCCCCNc1nc(ncc1I)N2 (racemic) [Example 4, (RS)—N-(Ethoxycarbonyl)-S-[1^5-iodo-2,4,9-triaza-1(2,4)-pyrimidina-3(1,3)-benzenacyclononaphan-3^4-yl]-S-methylsulphoximide] | 31 | 118 | 1850
C[Si](C)(C)CCS(=O)(=O)N=S(C)(=O)c1ccc2cc1NCCCCNc1nc(ncc1Br)N2 (racemic) [Example 5, (RS)—S-[1^5-Bromo-2,4,9-triaza-1(2,4)-pyrimidina-3(1,3)-benzenacyclononaphan-3^4-yl]-S-methyl-N-[2-(trimethylsilyl)ethylsulphonyl]sulphoximide] | 844 | > 1000 | > 20000
CCNC(=O)N=S(C)(=O)c1ccc2cc1NCCCCNc1nc(ncc1Br)N2 (racemic) [Example 6, (RS)—S-[1^5-Bromo-2,4,9-triaza-1(2,4)-pyrimidina-3(1,3)-benzenacyclononaphan-3^4-yl]-N-(ethylcarbamoyl)-S-methylsulphoximide] | 21 | 70 | 3770
CCCS(=O)(=O)N=S(C)(=O)c1ccc2cc1NCCCCNc1nc(ncc1Br)N2 (racemic) [Example 7, (RS)—S-[1^5-Bromo-2,4,9-triaza-1(2,4)-pyrimidina-3(1,3)-benzenacyclononaphan-3^4-yl]-S-methyl-N-(propylsulphonyl)sulphoximide] | 44 | 452 | > 20000
CCCOC(=O)N=S(C)(=O)c1ccc2cc1OCCCCNc1nc(ncc1Br)N2 (racemic) [Example 8, (RS)—S-[1^5-Bromo-4-oxa-2,9-diaza-1(2,4)-pyrimidina-3(1,3)-benzenacyclononaphan-3^4-yl]-S-methyl-N-(propoxycarbonyl)sulphoximide] | – | 438 | > 20000
C[Si](C)(C)CCS(=O)(=O)N=S(C)(=O)c1ccc2cc1OCCCCNc1nc(ncc1Br)N2 (racemic) [Example 9, (RS)—S-[1^5-Bromo-4-oxa-2,9-diaza-1(2,4)-pyrimidina-3(1,3)-benzenacyclononaphan-3^4-yl]-S-methyl-N-[2-(trimethylsilyl)ethylsulphonyl]sulphoximide] | 652 | > 1000 | > 12500
CCOC(=O)N=S(C)(=O)c1ccc2cc1NCCCCNc1nc(ncc1Br)N2 (single isomer, unassigned) [Example 2] | 26 | 104 | 3630
CCOC(=O)N=S(C)(=O)c1ccc2cc1NCCCCNc1nc(ncc1Br)N2 (single isomer, unassigned) [Example 3] | 77 | 210 | 6840
